This passage reports T/C results from PubChem BioAssay AID184 (DTP/NCI, 2004).

The subject of this experiment is BALB/cJ mice, ADJ-PC-6 ip tumor, median survival T/C. Kind of experiment: NCI In Vivo Anticancer Drug Screen. Data for tumor model ADJ-PC-6 (intraperitoneal) in BALB/cJ mice. Particulars: endpoint: median survival time, higher = longer survival. How it is done:
The antitumor activity of compounds was measured in mice bearing transplantable tumors. Survival or tumor size were measured and the results are expressed as the measurement made in the treated group (T) divided by the measurement made in the vehicle treated control group (C). The tumor model used in this assay is ADJ-PC-6 (intraperitoneal) in BALB/cJ mice

[1] abbreviates: dose: 50.0 mg/kg/injection, schedule: Q04DX003 (ip), vehicle: saline with Tween-80.
Setting [2] is: dose: 7.5 mg/kg/injection, schedule: Q04DX003 (ip), vehicle: saline.
The mark [3] stands for this setting: dose: 15.0 mg/kg/injection, schedule: Q04DX003 (ip), vehicle: saline.
Where [4] appears, read: dose: 30.0 mg/kg/injection, schedule: Q04DX003 (ip), vehicle: saline.
The mark [5] stands for this setting: dose: 60.0 mg/kg/injection, schedule: Q04DX003 (ip), vehicle: saline.

SMILES strings stand for the structures. Several values for one entry are separate records, joined by “and”; a condition that tells them apart may be missing. Equal entries are not always repeated. Toxic doses and inconclusive results are not listed.

Regarding `COc1c(O)c2c(c3cc(C(=O)N4CCc5c4c(O)c(OC)c4[nH]c(C(=O)N6CC7CC78C6=CC(=O)c6[nH]cc(C)c68)cc54)[nH]c13)CCN2C(N)=O` (configuration not stated), the T/C is 95 % of control (dose: 25.0 micrograms/kg/injection, schedule: Q04DX003 (ip), vehicle: DMSO); 96 % of control (dose: 50.0 micrograms/kg/injection, schedule: Q04DX003 (ip), vehicle: DMSO); 103 % of control (dose: 100.0 micrograms/kg/injection, schedule: Q04DX003 (ip), vehicle: DMSO); 100 % of control (dose: 200.0 micrograms/kg/injection, schedule: Q04DX003 (ip), vehicle: DMSO).

With `CCCCCCCC(=O)N/N=C(\CO)[C@]1(O)Cc2c(O)c3c(c(O)c2[C@@H](OC2CC(N)C(O)C(C)O2)C1)C(=O)c1c(OC)cccc1C3=O` (some centres not stated), the T/C reads like this: (dose: 5.0 mg/kg/injection, schedule: Q04DX003 (ip), vehicle: saline) 165 % of control; (dose: 10.0 mg/kg/injection, schedule: Q04DX003 (ip), vehicle: saline) 242 % of control; (dose: 20.0 mg/kg/injection, schedule: Q04DX003 (ip), vehicle: saline) 180 % of control; (dose: 40.0 mg/kg/injection, schedule: Q04DX003 (ip), vehicle: saline) 226 % of control; (dose: 80.0 mg/kg/injection, schedule: Q04DX003 (ip), vehicle: saline) 118 % of control.

Consider `Cc1c2ccncc2c(C)c2c1[nH]c1ccccc12`, for which the T/C runs as follows: (dose: 6.25 mg/kg/injection, schedule: Q04DX003 (ip), vehicle: saline with Tween-80) 122 % of control; (dose: 25.0 mg/kg/injection, schedule: Q04DX003 (ip), vehicle: saline with Tween-80) 190 % of control; under setting [1], 255 % of control; (dose: 100.0 mg/kg/injection, schedule: Q04DX003 (ip), vehicle: saline with Tween-80) 250 % of control.

Consider `[Cl][Pt+2][Cl].[NH-]C1CCCC1.[NH2-]`, for which the T/C by setting is: (dose: 1.04 mg/kg/injection, schedule: Q04DX003 (ip), vehicle: saline) 204 % of control; (dose: 1.73 mg/kg/injection, schedule: Q04DX003 (ip), vehicle: saline) 254 % of control; (dose: 2.88 mg/kg/injection, schedule: Q04DX003 (ip), vehicle: saline) 385 % of control; (dose: 4.8 mg/kg/injection, schedule: Q04DX003 (ip), vehicle: saline) 445 % of control; (dose: 8.0 mg/kg/injection, schedule: Q04DX003 (ip), vehicle: saline) 451 % of control.

Take `CO[C@H]1C[C@@H]2CC[C@@H](C)[C@@](O)(O2)C(=O)C(=O)N2CCCC[C@H]2C(=O)O[C@H]([C@H](C)C[C@@H]2CC[C@@H](O)[C@H](OC)C2)CC(=O)[C@H](C)C=C(C)[C@@H](O)[C@@H](OC)C(=O)[C@H](C)C[C@H](C)/C=C/C=C/C=C1C`: the T/C is 113 % of control and 114 % of control (dose: 7.5 mg/kg/injection, schedule: Q01DX009 (ip), vehicle: saline with Tween-80); 116 % of control (dose: 15.0 mg/kg/injection, schedule: Q01DX009 (ip), vehicle: saline with Tween-80); 87 % of control (dose: 25.0 mg/kg/injection, schedule: Q01DX009 (ip), vehicle: saline); 114 % of control and 118 % of control (dose: 30.0 mg/kg/injection, schedule: Q01DX009 (ip), vehicle: saline with Tween-80); 98 % of control (dose: 50.0 mg/kg/injection, schedule: Q01DX009 (ip), vehicle: saline); 95 % of control and 110 % of control (dose: 60.0 mg/kg/injection, schedule: Q01DX009 (ip), vehicle: saline with Tween-80). For the same compound, the T/C runs as follows: (dose: 100.0 mg/kg/injection, schedule: Q01DX009 (ip), vehicle: saline) 87 % of control; (dose: 120.0 mg/kg/injection, schedule: Q01DX009 (ip), vehicle: saline with Tween-80) 87 % of control; (dose: 200.0 mg/kg/injection, schedule: Q01DX009 (ip), vehicle: saline) 93 % of control.

With `O=C1NC(=O)C2C3C=CC(C12)C1C2C(=O)NC(=O)C2C31` (configuration not stated), the T/C was 110 % of control (dose: 5.0 mg/kg/injection, schedule: Q01DX009 (ip), vehicle: saline with Tween-80); 88 % of control and 103 % of control (dose: 10.0 mg/kg/injection, schedule: Q01DX009 (ip), vehicle: saline with Tween-80); 235 % of control (dose: 80.0 mg/kg/injection, schedule: Q01DX009 (ip), vehicle: saline with Tween-80).

`CN(C)/N=N/c1nc[nH]c1C(N)=O`: the T/C is, setting by setting: (dose: 50.0 mg/kg/injection, schedule: Q01DX009 (ip), vehicle: saline with Tween-80) 99 % of control; under setting [1], 335 % of control and 471 % of control; (dose: 100.0 mg/kg/injection, schedule: Q01DX009 (ip), vehicle: saline with Tween-80) 110 % of control; (dose: 200.0 mg/kg/injection, schedule: Q01DX009 (ip), vehicle: saline with Tween-80) 105 % of control; (dose: 200.0 mg/kg/injection, schedule: Q04DX003 (ip), vehicle: Klucel (hydroxypropylcellulose) (HPC)) 216 % of control and 275 % of control; (dose: 200.0 mg/kg/injection, schedule: Q04DX003 (ip), vehicle: saline with Tween-80) 335 % of control and 471 % of control. Also, the T/C is 275 % of control and 369 % of control (dose: 400.0 mg/kg/injection, schedule: Q04DX003 (ip), vehicle: Klucel (hydroxypropylcellulose) (HPC)); 227 % of control and 335 % of control and 471 % of control (dose: 400.0 mg/kg/injection, schedule: Q04DX003 (ip), vehicle: saline with Tween-80).

As to `COc1cccc2c1C(=O)c1c(O)c3c(c(O)c1C2=O)C[C@@](O)(C(C)=O)C[C@@H]3OC1CC(N)C(O)C(C)O1` (some centres not stated), the T/C is, setting by setting: (dose: 0.38 mg/kg/injection, schedule: Q04DX003 (ip), vehicle: saline) 101 % of control; (dose: 1.5 mg/kg/injection, schedule: Q04DX003 (ip), vehicle: saline) 174 % of control; (dose: 2.0 mg/kg/injection, schedule: Q04DX003 (ip), vehicle: saline) 177 % of control; (dose: 3.0 mg/kg/injection, schedule: Q04DX003 (ip), vehicle: saline) 117 % of control.

Regarding `C(=N/NC1=NCCN1)/c1c2ccccc2c(/C=N\NC2=NCCN2)c2ccccc12`, the T/C is 253 % of control (dose: 3.75 mg/kg/injection, schedule: Q04DX003 (ip), vehicle: saline); 235 % of control (dose: 3.75 mg/kg/injection, schedule: Q04DX003 (ip), vehicle: water); 204 % of control under setting [2]; 235 % of control (dose: 7.5 mg/kg/injection, schedule: Q04DX003 (ip), vehicle: water); 253 % of control under setting [3]; 235 % of control (dose: 15.0 mg/kg/injection, schedule: Q04DX003 (ip), vehicle: water). Moreover, the T/C runs as follows: under setting [4], 225 % of control; (dose: 30.0 mg/kg/injection, schedule: Q04DX003 (ip), vehicle: water) 235 % of control; under setting [5], 267 % of control.

With `[Cl][Pt+2][Cl].[NH-]C1CCC1.[NH2-]`, the T/C reads like this: (dose: 1.04 mg/kg/injection, schedule: Q04DX003 (ip), vehicle: water) 216 % of control; (dose: 1.73 mg/kg/injection, schedule: Q04DX003 (ip), vehicle: water) 265 % of control; (dose: 2.88 mg/kg/injection, schedule: Q04DX003 (ip), vehicle: water) 301 % of control.

Take `O=NN(CCCl)C(=O)NCCCl`: the T/C is 106 % of control (dose: 1.25 mg/kg/injection, schedule: Q04DX003 (ip), vehicle: saline + alcohol); 101 % of control and 178 % of control and 248 % of control (dose: 5.0 mg/kg/injection, schedule: Q04DX003 (ip), vehicle: saline + alcohol); 150 % of control and 322 % of control (dose: 10.0 mg/kg/injection, schedule: Q04DX003 (ip), vehicle: saline + alcohol); 222 % of control and 235 % of control and 355 % of control (dose: 20.0 mg/kg/injection, schedule: Q04DX003 (ip), vehicle: saline + alcohol); 92 % of control and 235 % of control (dose: 40.0 mg/kg/injection, schedule: Q04DX003 (ip), vehicle: saline + alcohol).

For `O=c1[nH]cc(F)c(=O)[nH]1`, the T/C runs as follows: under setting [2], 150 % of control and 471 % of control; under setting [3], 173 % of control and 308 % of control; under setting [4], 150 % of control and 273 % of control and 471 % of control; under setting [5], 193 % of control and 335 % of control and 471 % of control.

Turning to `Cc1ncc(CO)c(CO)c1O`, the T/C runs as follows: (dose: 50.0 mg/kg/injection, schedule: Q01DX014 (sc), vehicle: saline) 115 % of control; (dose: 100.0 mg/kg/injection, schedule: Q01DX014 (sc), vehicle: saline) 99 % of control; (dose: 200.0 mg/kg/injection, schedule: Q01DX014 (sc), vehicle: saline) 120 % of control; (dose: 400.0 mg/kg/injection, schedule: Q01DX014 (sc), vehicle: saline) 117 % of control.
